“Also recorded” adds a separate entry of the source.
How the values were obtained:
control T-cells = test: T-cell proliferation in response to CD3 activation (CellTrace violet dye dilution); assay type: cell-based, human; settings: nucleotide added to deazauridine-treated control T cells
From the text: Informed consent was obtained from donors, patients and families of patients. The study and protocols conform to the 1975 declaration of Helsinki as well as to local legislation and ethical guidelines. Genomic DNA extracted from peripheral blood cells was used for whole exome sequencing (Illumina) and sequencing of CTPS1. PBMCs were Ficoll-purified and activated with phytohemagglutinin (PHA) for 3 days, and then cultured in RPMI medium supplemented with 5% type AB human serum and IL-2 (100 UI/ml). T-cell blasts were restimulated with various mitogens and analyzed for memory and activation markers, calcium flux, cytokine secretions, apoptosis and TCR-CD3 signaling cascade molecules by immunoblotting. CTPS1 protein was detected by immunoblotting with an antibody raised against residues in the middle of the protein (341 to 355) (#SAB111071, Sigma). […] Proliferation was assessed after 96 hours by monitoring the dilution of CellTrace violet dye labelling. Cell cycle was determined by measuring the incorporation of EdU into newly synthesized DNA during 40 hours. The division indexes were calculated with the Flowjo software (BD Biosciences). […] In long-term expansions, cells were repeatedly stimulated with CD3/CD28-coated beads every 48 h and the transduced GFP^+ cells in the cultures were determined by every 24 h. […]

CTPS1-deficient cells = test: Proliferation and CD25 expression of CTPS1-deficient T cells after addition of nucleotides or nucleosides; assay type: cell-based, human; settings: addition of nucleotides or nucleosides before stimulation
From the text: Informed consent was obtained from donors, patients and families of patients. The study and protocols conform to the 1975 declaration of Helsinki as well as to local legislation and ethical guidelines. Genomic DNA extracted from peripheral blood cells was used for whole exome sequencing (Illumina) and sequencing of CTPS1. PBMCs were Ficoll-purified and activated with phytohemagglutinin (PHA) for 3 days, and then cultured in RPMI medium supplemented with 5% type AB human serum and IL-2 (100 UI/ml). T-cell blasts were restimulated with various mitogens and analyzed for memory and activation markers, calcium flux, cytokine secretions, apoptosis and TCR-CD3 signaling cascade molecules by immunoblotting. CTPS1 protein was detected by immunoblotting with an antibody raised against residues in the middle of the protein (341 to 355) (#SAB111071, Sigma). […] Proliferation was assessed after 96 hours by monitoring the dilution of CellTrace violet dye labelling. Cell cycle was determined by measuring the incorporation of EdU into newly synthesized DNA during 40 hours. The division indexes were calculated with the Flowjo software (BD Biosciences). For gene silencing of CTPS1 by shRNA expression (Openbiosystems), cells were transduced at day 3 of PHA stimulation. For rescue experiments, CTPS1-deficient cells were transduced with a lentiviral vector (Invitrogen) containing the CTPS1 gene and proliferation was performed 5 days after transduction. In long-term expansions, cells were repeatedly stimulated with CD3/CD28-coated beads every 48 h and the transduced GFP^+ cells in the cultures were determined by every 24 h. The intracellular content of nucleotides was measured by liquid chromatography-mass spectrometry (UPLC-xevoTQS, Waters). P values were calculated by two-tailed Student's t-test using PRISM software (GraphPad).

| Structure (SMILES) | reversion of the inhibition of T-cell proliferation by deazauridine (control T-cells) | CD25 expression of CTPS1-deficient cells (CTPS1-deficient cells) | proliferation of CTPS1-deficient cells (CTPS1-deficient cells) |
| --- | --- | --- | --- |
| Nc1ccn([C@@H]2O[C@H](COP(=O)(O)OP(=O)(O)OP(=O)(O)O)[C@@H](O)[C@H]2O)c(=O)n1 [CTP, cytidine nucleotide triphosphate] | fully reverted | recovered to a normal level | recovered to a normal level; also recorded: restored to normal level |
| O=c1ccn([C@@H]2O[C@H](COP(=O)(O)OP(=O)(O)OP(=O)(O)O)[C@@H](O)[C@H]2O)c(=O)[nH]1 [UTP] | partially |  |  |
| Nc1ccn([C@@H]2O[C@H](CO)[C@@H](O)[C@H]2O)c(=O)n1 [cytidine] |  | recovered to a normal level | recovered to a normal level; also recorded: restored |
